Reference: patent US20220395522A1, “Methods of Use of Glucosamine for Increasing Nitrogen Retention” (TSI Bioproducts (Xuzhou) Co., Ltd., priority 2021, published 2022)
Read-outs that look alike come from different tables or passages of the source.

Type: in vivo, human
Details: for Fecal 3-Hydroxybutyrate / Fecal Acetate / Fecal Alanine / Fecal Butyrate / Fecal Cadaverine / Fecal Ethanol / Fecal Formate / Fecal Fumarate / Fecal Glucose / Fecal Glutamate / Fecal Glycerol / Fecal Glycine / Fecal Hypoxanthine / Fecal Isobutyrate / Fecal Isoleucine / Fecal Isovalerate / Fecal Lactate / Fecal Leucine / Fecal Lysine / Fecal Methionine / Fecal Methionine-sulfoxide / Fecal N-Acetylglucosamine / Fecal Nicotinate / Fecal Phenylacetate / Fecal Phenylalanine / Fecal Proline / Fecal Propionate / Fecal Putrescine / Fecal Ribose / Fecal Succinate / Fecal Threonine / Fecal Total AA / Fecal Total BCAAs / Fecal Total SCFA / Fecal Tyrosine / Fecal Uracil / Fecal Urocanate / Fecal Valerate / Fecal Valine / Fecal Xylose / Fecal p-Cresol: GLU condition, mean ± SD
Text: Stool specimens were collected at four time points throughout the entire study protocol. The first two samples were collected before and after the first supplementation period while the final two samples were collected before and after the second supplementation period. All stool specimens were collected no more than 24-hours prior to that study participant being scheduled to complete their laboratory visit. All samples were immediately frozen after sample collection by the study participants. Participants were instructed to keep their samples in the freezer and to remove them at the latest possible time to minimize thawing during transfer to the laboratory for storage. Participants were provided with all materials necessary to collect, store, and transport the stool specimen including commode fecal collection system, fecal collection tubes with screw top lids and scoops attached, disposable gloves, freezer packs, specimen labels, and transfer containers. Participants were instructed to raise the toilet seat and place the stool collection frame on the back of the toilet bowl and then lower the toilet seat down and place collection bowl in frame. Participants then sat on the toilet and collected a stool sample into the container. Participants were instructed, if possible, to not urinate into the collection container. Participants then extracted a representative stool sample and filled each of the two provided sample collection tubes. Tubes were then secured, labeled, and frozen. All remaining stool was discarded into the toilet and flushed. Upon arrival in the laboratory each sample was immediately stored at −80° C.
A Fecal Metabolome Analysis was further conducted. Samples were manually homogenized with a sterile microspatula, and approximately 250 mg of fecal material was weighed and extracted using 1.5 mL of ice-cold Dulbecco's phosphate buffered saline (DPBS, 1×, pH 7.4). After extraction, samples were centrifuged, and the pellet was dried using a Labconco FreeZone 4.5 L Freeze Dry System to determine fecal dry weight. The supernatant was sequentially filtered through a 0.22 μm pore-size syringe filter (Millex-GP syringe filter, Millipore, Billerica, Mass.) to remove microbes followed by a 3 kDa ultracentrifugal filter (Amicon ultracentrifugal filter, Millipore, Billerica, Mass.) to remove any excess proteins. To 207 […], 23 […] (5 mM DSS-d6 (trimethylsilylpropanesulfonate) containing 0.2% NaN3 in 99.8% D20 was added to aid in quantification of metabolites. The pH of each sample was adjusted to 6.8±0.1 through addition of small amounts of NaOH or HCl. Samples were transferred to 3 mm Bruker NMR tubes (Bruker, Brillerica, Mass.) and stored at 4° C. until spectral acquisition. Nuclear magnetic resonance (NMR) spectra were acquired using a Bruker Avance 600 MHz NMR spectrometer equipped with a SampleJet autosampler (Bruker BioSpin, Germany) at 298 K using the NOESY 1H presaturation experiment (‘noesypr1d’). Data were acquired with a spectral width of 12 ppm, a 2.5-second acquisition time, a relaxation delay of 2.5 seconds, and a 100-millisecond mixing time using 32 transients and 8 dummy scans. Water saturation was applied during the relaxation delay and mixing time. Each spectrum was Fourier Transformed with zero filling to 128,000 data points, and the resulting Free Induction Decay (FID) was transformed with an exponential apodization function corresponding to a line-broadening of 0.5 Hz. Spectra were subsequently phased and baseline corrected using Chenomx NMRSuite Processor v8.3 (Chenomx Inc., Edmonton, Canada). Metabolites were identified and quantified based on the known concentration of the internal standard, using Chenomx NMRSuite Profiler v8.3 based on the established method of targeted profiling.

[1] = Post 21 days, 3 x 1,000 mg/day oral

Compound: Cl.N[C@H]1C(O)O[C@H](CO)[C@@H](O)[C@@H]1O (some centres unmarked) [GLU, glucosamine hydrochloride]
- Fecal 3-Hydroxybutyrate [1]: 76 ± 35
- Fecal Acetate [1]: 43,680 ± 11,351
- Fecal Alanine [1]: 2228 ± 721
- Fecal Butyrate [1]: 13,538 ± 6558
- Fecal Cadaverine [1]: 165 ± 56
- Fecal Ethanol [1]: 272 ± 187
- Fecal Formate [1]: 403 ± 299
- Fecal Fumarate [1]: 218 ± 115
- Fecal Glucose [1]: 3334 ± 2753
- Fecal Glutamate [1]: 6773 ± 2223
- Fecal Glycerol [1]: 6397 ± 3575
- Fecal Glycine [1]: 965 ± 399
- Fecal Hypoxanthine [1]: 325 ± 143
- Fecal Isobutyrate [1]: 1956 ± 1334
- Fecal Isoleucine [1]: 777 ± 388
- Fecal Isovalerate [1]: 1712 ± 1304
- Fecal Lactate [1]: 172 ± 396
- Fecal Leucine [1]: 1094 ± 496
- Fecal Lysine [1]: 1454 ± 554
- Fecal Methionine [1]: 352 ± 210
- Fecal Methionine-sulfoxide [1]: 202 ± 149
- Fecal N-Acetylglucosamine [1]: 187 ± 152
- Fecal Nicotinate [1]: 271 ± 106
- Fecal Phenylacetate [1]: 999 ± 786
- Fecal Phenylalanine [1]: 544 ± 208
- Fecal Proline [1]: 654 ± 326
- Fecal Propionate [1]: 12,663 ± 5766
- Fecal Putrescine [1]: 115 ± 61
- Fecal Ribose [1]: 1332 ± 533
- Fecal Succinate [1]: 758 ± 430
- Fecal Threonine [1]: 659 ± 252
- Fecal Total AA [1]: 17,208 ± 5190
- Fecal Total BCAAs [1]: 2873 ± 1312
- Fecal Total SCFA [1]: 76,527 ± 25,492
- Fecal Tyrosine [1]: 707 ± 273
- Fecal Uracil [1]: 684 ± 287
- Fecal Urocanate [1]: 85 ± 48
- Fecal Valerate [1]: 2574 ± 1519
- Fecal Valine [1]: 1003 ± 451
- Fecal Xylose [1]: 702 ± 545
- Fecal p-Cresol [1]: 551 ± 537
- Fecal 3-Hydroxybutyrate (Pre (baseline)): 89 ± 62
- Fecal Acetate (Pre (baseline)): 40,675 ± 12,876
- Fecal Alanine (Pre (baseline)): 2667 ± 1134
- Fecal Butyrate (Pre (baseline)): 11,370 ± 5781
- Fecal Cadaverine (Pre (baseline)): 170 ± 52
- Fecal Ethanol (Pre (baseline)): 169 ± 98
- Fecal Formate (Pre (baseline)): 298 ± 166
- Fecal Fumarate (Pre (baseline)): 225 ± 151
- Fecal Glucose (Pre (baseline)): 2229 ± 2054
- Fecal Glutamate (Pre (baseline)): 8882 ± 3831
- Fecal Glycerol (Pre (baseline)): 7458 ± 7347
- Fecal Glycine (Pre (baseline)): 1207 ± 514
- Fecal Hypoxanthine (Pre (baseline)): 414 ± 190
- Fecal Isobutyrate (Pre (baseline)): 2097 ± 887
- Fecal Isoleucine (Pre (baseline)): 1029 ± 462
- Fecal Isovalerate (Pre (baseline)): 1885 ± 886
- Fecal Lactate (Pre (baseline)): 60 ± 49
- Fecal Leucine (Pre (baseline)): 1422 ± 622
- Fecal Lysine (Pre (baseline)): 1834 ± 815
- Fecal Methionine (Pre (baseline)): 424 ± 290
- Fecal Methionine-sulfoxide (Pre (baseline)): 258 ± 191
- Fecal N-Acetylglucosamine (Pre (baseline)): 249 ± 147
- Fecal Nicotinate (Pre (baseline)): 327 ± 162
- Fecal Phenylacetate (Pre (baseline)): 1095 ± 511
- Fecal Phenylalanine (Pre (baseline)): 629 ± 280
- Fecal Proline (Pre (baseline)): 687 ± 280
- Fecal Propionate (Pre (baseline)): 12,596 ± 4145
- Fecal Putrescine (Pre (baseline)): 92 ± 59
- Fecal Ribose (Pre (baseline)): 1428 ± 760
- Fecal Succinate (Pre (baseline)): 635 ± 289
- Fecal Threonine (Pre (baseline)): 831 ± 355
- Fecal Total AA (Pre (baseline)): 21,838 ± 8104
- Fecal Total BCAAs (Pre (baseline)): 3802 ± 1674
- Fecal Total SCFA (Pre (baseline)): 71,612 ± 22,891
- Fecal Tyrosine (Pre (baseline)): 874 ± 394
- Fecal Uracil (Pre (baseline)): 922 ± 352
- Fecal Urocanate (Pre (baseline)): 104 ± 57
- Fecal Valerate (Pre (baseline)): 2691 ± 1314
- Fecal Valine (Pre (baseline)): 1351 ± 610
- Fecal Xylose (Pre (baseline)): 441 ± 420
- Fecal p-Cresol (Pre (baseline)): 597 ± 330
- Fecal 3-Hydroxybutyrate, % (PLA vs. GLU, between-group): 4.3%
- Fecal Acetate, % (PLA vs. GLU, between-group): 0.5%
- Fecal Alanine, % (PLA vs. GLU, between-group): −33.4%
- Fecal Butyrate, % (PLA vs. GLU, between-group): 14.3%
- Fecal Cadaverine, % (PLA vs. GLU, between-group): −29.1%
- Fecal Ethanol, % (PLA vs. GLU, between-group): 123.7%
- Fecal Formate, % (PLA vs. GLU, between-group): 30.7%
- Fecal Fumarate, % (PLA vs. GLU, between-group): −29.4%
- Fecal Glucose, % (PLA vs. GLU, between-group): 61.4%
- Fecal Glutamate, % (PLA vs. GLU, between-group): −30.7%
- Fecal Glycerol, % (PLA vs. GLU, between-group): −33.0%
- Fecal Glycine, % (PLA vs. GLU, between-group): −34.5%
- Fecal Hypoxanthine, % (PLA vs. GLU, between-group): −27.1%
- Fecal Isobutyrate, % (PLA vs. GLU, between-group): −38.6%
- Fecal Isoleucine, % (PLA vs. GLU, between-group): −40.5%
- Fecal Isovalerate, % (PLA vs. GLU, between-group): −18.9%
- Fecal Lactate, % (PLA vs. GLU, between-group): 107.7%
- Fecal Leucine, % (PLA vs. GLU, between-group): −28.4%
- Fecal Lysine, % (PLA vs. GLU, between-group): −32.1%
- Fecal Methionine, % (PLA vs. GLU, between-group): −23.7%
- Fecal Methionine-sulfoxide, % (PLA vs. GLU, between-group): 37.4%
- Fecal N-Acetylglucosamine, % (PLA vs. GLU, between-group): −34.9%
- Fecal Nicotinate, % (PLA vs. GLU, between-group): −6.6%
- Fecal Phenylacetate, % (PLA vs. GLU, between-group): −30.6%
- Fecal Phenylalanine, % (PLA vs. GLU, between-group): −15.6%
- Fecal Proline, % (PLA vs. GLU, between-group): −5.7%
- Fecal Propionate, % (PLA vs. GLU, between-group): −10.0%
- Fecal Putrescine, % (PLA vs. GLU, between-group): 5.0%
- Fecal Ribose, % (PLA vs. GLU, between-group): −37.4%
- Fecal Succinate, % (PLA vs. GLU, between-group): 8.0%
- Fecal Threonine, % (PLA vs. GLU, between-group): −31.8%
- Fecal Total AA, % (PLA vs. GLU, between-group): −31.0%
- Fecal Total BCAAs, % (PLA vs. GLU, between-group): −36.5%
- Fecal Total SCFA, % (PLA vs. GLU, between-group): −1.3%
- Fecal Tyrosine, % (PLA vs. GLU, between-group): −30.5%
- Fecal Uracil, % (PLA vs. GLU, between-group): −34.7%
- Fecal Urocanate, % (PLA vs. GLU, between-group): −38.7%
- Fecal Valerate, % (PLA vs. GLU, between-group): −36.0%
- Fecal Valine, % (PLA vs. GLU, between-group): −42.4%
- Fecal Xylose, % (PLA vs. GLU, between-group): 70.8%
- Fecal p-Cresol, % (PLA vs. GLU, between-group): −27.7%
- Fecal glutamate, isoleucine, leucine and valine content (compared to baseline, p<0.05): significantly reduced
- Total amino acids, change (compared to baseline, p<0.05): −21%
- Total branched-chain amino acid, change (compared to baseline, p<0.05): −24%
- Fecal nucleotides (uracil) (compared to baseline, p=0.02): significantly reduced
- Effect on individual or total short-chain fatty acids (p>0.05): no effect
